Experimental data published in ChEMBL document CHEMBL3046849, “Composition of essential oil of Chinese Chenopodium ambrosioides and insecticidal activity against maize weevil, Sitophilus zeamais” (2011).
Values after ≈ are worked out from the molar mass of the structure shown.

What was measured:
Assay type in all cases: functional
[1] = tested on: Sitophilus zeamais; assay: Contact toxicity against adult Sitophilus zeamais assessed as mortality applied to dorsal thorax of insect measured daily for 1 week; conditions: 168 h
[2] = tested on: Sitophilus zeamais; assay: Insecticidal activity against adult Sitophilus zeamais assessed as mortality measured daily for 1 week by fumigation assay; conditions: 168 h
[3] = tested on: Sitophilus zeamais; assay: Insecticidal activity against adult Sitophilus zeamais assessed as mortality after 24 hr by fumigation assay

Row | Compound | LD50 [1] | LC50 [2] | LC50 [3]
1 | CC1=CC2C(CC1)C2(C)C (configuration not stated) [2-CARENE] | 3.55 mg/kg | 14 µg/mL (≈ 103 µM) | –
2 | CC(C)[C@@]12C=C[C@@](C)(CC1)OO2 [(Z)-ASCARIDOLE] | 0.86 mg/kg | 0.84 µg/mL (≈ 4.99 µM) | –
3 | CC1=CC=C(C(C)C)CC1 [ALPHA-TERPINENE] | 3.47 mg/kg | 5.46 µg/mL (≈ 40.1 µM) | –
4 | CBr [BROMOMETHANE] | – | – | 0.67 µg/mL (≈ 7.06 µM)
5 | CC(C)[C@]12CC[C@@]3(C)O[C@H]3[C@H]1O2 [ISOASCARIDOLE] | 2.16 mg/kg | 2.45 µg/mL (≈ 14.6 µM) | –
6 | Cc1ccc(C(C)C)cc1 [P-CYMENE] | > 23.2 mg/kg | 23.3 µg/mL (≈ 173 µM) | –
7 | P [PHOSPHINE] | – | – | 0.006 µg/mL (≈ 0.176 µM)
